Results taken from ChEMBL document CHEMBL4483862, “Open-source discovery of chemical leads for next-generation chemoprotective antimalarials” (2018).

Tested on: Plasmodium berghei
Experiment: Luciferase/luciferin-expressing antifolate-resistant parasites were used to infect a culture of HepG2 cells that were pre-incubated with compounds. Infected hepatocytes emit light due to the luciferase reaction. Assay results are presented as the percent inhibition of light emission compared to control. […]
Format: functional
Conditions: sporozoite; for IC90: read-out: LUCIFERASE INFECTION ASSAY - IC90
[1] = read-out: LUCIFERASE INFECTION ASSAY - IC50

SMILES | IC90 | IC50 [1] | other results
COc1ccc(-c2cnc3ccc(-c4cccc(F)c4)nn23)cc1OC | 1.27 µM | – | IC50 (HEPG2TOX_HILL_SLOPE 3.03, HEPG2TOX_R_SQUARED 0.965, PBLUC_HILL_SLOPE 7.81, PBLUC_R_SQUARED 0.531, read-out: LUCIFERASE INFECTION ASSAY - IC50): 0.958 µM
Cn1c(N)c(C(=O)COC(=O)C2(c3ccccc3F)CCCC2)c(=O)n(C)c1=O | > 10 µM | > 10 µM | –
Cc1nc(NC(=O)c2cn3ccccc3n2)sc1Cc1ccc2c(c1)OCO2 | 3.5 µM | – | IC50 (PBLUC_HILL_SLOPE 53.8, PBLUC_R_SQUARED 0.294, read-out: LUCIFERASE INFECTION ASSAY - IC50): 3.36 µM
CCc1cc2c(COC(=O)c3cc(C(C)=O)cn3C)cc(=O)oc2cc1O | > 10 µM | – | IC50 (PBLUC_HILL_SLOPE 9.37, PBLUC_R_SQUARED 0.164, read-out: LUCIFERASE INFECTION ASSAY - IC50): 8.69 µM
CCCS(=O)(=O)NC(=O)C1(C)CCCN(C(=O)c2ccccc2OC)C1 (stereo not given) | > 8.63 µM | > 8.63 µM | –
Cn1ccc2cc(-c3cnc4cnc(-c5ccc(C(=O)NCCO)cc5)cn34)ccc21 | 7.65 µM | 6.16 µM | –
CC(=O)NC(C)CCc1ccc(-c2csc(-c3ccc(NC(=O)C4CC4)cc3)n2)cc1 (stereo not given) | 0.146 µM | – | IC50 (PBLUC_HILL_SLOPE 9.6, PBLUC_R_SQUARED 0.721, read-out: LUCIFERASE INFECTION ASSAY - IC50): 0.116 µM
O=C(Nc1ccccc1C(=O)Nc1nnc(C(F)(F)F)s1)c1ccccc1 | 1.89 µM | – | IC50 (HEPG2TOX_HILL_SLOPE 6.74, HEPG2TOX_R_SQUARED 0.749, PBLUC_HILL_SLOPE 2.08, PBLUC_R_SQUARED 0.449, read-out: LUCIFERASE INFECTION ASSAY - IC50): 0.658 µM
CN(C)c1ccc(-c2cnc3cnc(-c4ccc(N)nc4)cn23)cc1 | 8.82 µM | – | IC50 (HEPG2TOX_HILL_SLOPE 7.95, HEPG2TOX_R_SQUARED 0.49, PBLUC_HILL_SLOPE 26.9, PBLUC_R_SQUARED 0.584, read-out: LUCIFERASE INFECTION ASSAY - IC50): 8.12 µM
c1cncc(-c2cn3c(-c4cccs4)cnc3cn2)c1 | > 11.9 µM | > 11.9 µM | –
CCOC(=O)c1cnn(-c2ccc(NC(=O)COc3ccccc3C#N)cc2)c1C(F)(F)F | > 10 µM | > 10 µM | –
O=C(Cn1ncc(Cl)c(Cl)c1=O)N1CCc2ccccc21 | > 10 µM | – | IC50 (HEPG2TOX_HILL_SLOPE 5.62, HEPG2TOX_R_SQUARED 0.657, PBLUC_HILL_SLOPE 20.9, PBLUC_R_SQUARED 0.129, read-out: LUCIFERASE INFECTION ASSAY - IC50): 9.19 µM
Fc1ccc(CN2CCN(Cc3ccco3)CC2)cc1 | > 12 µM | > 12 µM | –
O=C(CC12CC3CC(CC(C3)C1)C2)Nc1ccc(C(F)(F)F)cc1 | > 9.78 µM | > 9.78 µM | –
CCNC(=O)NC(=O)C(c1ccccc1)n1nc(C(=O)O)c2ccccc2c1=O (stereo not given) | > 10 µM | > 10 µM | –
CCc1ccccc1OCC(=O)Nc1cc(Cl)ccc1N1CCN(C)CC1 | > 10 µM | – | IC50 (FFLUC_HILL_SLOPE 16.4, FFLUC_R_SQUARED 0.269, read-out: LUCIFERASE INFECTION ASSAY - IC50): > 10 µM
Nn1c(SCC(=O)c2c[nH]c3ccccc23)nnc1C(F)(F)F | 8.78 µM | – | IC50 (HEPG2TOX_HILL_SLOPE 1.03, HEPG2TOX_R_SQUARED 0.976, PBLUC_HILL_SLOPE 0.599, PBLUC_R_SQUARED 0.712, read-out: LUCIFERASE INFECTION ASSAY - IC50): 0.224 µM
c1cc2[nH]c(-c3ccsc3)cc2c(Nc2ccc(N3CCOCC3)cc2)n1 | > 10 µM | – | IC50 (PBLUC_HILL_SLOPE 2.04, PBLUC_R_SQUARED 0.351, read-out: LUCIFERASE INFECTION ASSAY - IC50): 6.37 µM
NS(=O)(=O)c1ccc(CCNCC(=O)N2CCC(Cc3ccccc3)CC2)cc1 | > 10 µM | – | IC50 (HEPG2TOX_HILL_SLOPE 10, HEPG2TOX_R_SQUARED 0.966, PBLUC_HILL_SLOPE 4.42, PBLUC_R_SQUARED 0.274, read-out: LUCIFERASE INFECTION ASSAY - IC50): 7.8 µM
O=C(CN1CCCc2ccccc21)NC(=O)NCc1ccccc1 | 7.44 µM | – | IC50 (PBLUC_HILL_SLOPE 112, PBLUC_R_SQUARED 0.458, read-out: LUCIFERASE INFECTION ASSAY - IC50): 7.29 µM
Cc1cccc2sc(N(Cc3ccccc3)C(=O)CN3CCN(CC(=O)N4CCCC4)CC3)nc12 | 6.71 µM | – | IC50 (PBLUC_HILL_SLOPE 173, PBLUC_R_SQUARED 0.447, read-out: LUCIFERASE INFECTION ASSAY - IC50): 6.63 µM
O=C(c1cccs1)N1CCc2[nH]nc(-c3ccc(Cl)cc3)c2C1 | > 9.6 µM | > 9.6 µM | –
Cc1cc(/C=C2\SC(N3CCOCC3)=NC2=O)c(C)n1-c1cccc(C(F)(F)F)c1 | > 10 µM | > 10 µM | –

SMILES | IC90 | IC50 [1] | other results
O=[N+]([O-])c1ccc(-c2nnc(SCc3c(Cl)cccc3Cl)o2)o1 | 8.84 µM | – | IC50 (HEPG2TOX_HILL_SLOPE 11.4, HEPG2TOX_R_SQUARED 0.952, PBLUC_HILL_SLOPE 3.38, PBLUC_R_SQUARED 0.564, read-out: LUCIFERASE INFECTION ASSAY - IC50): 4.61 µM
C=CCn1c(SC(C(=O)c2c[nH]c3ccccc23)c2ccccc2)nc2ccccc2c1=O (stereo not given) | > 10 µM | 8.28 µM | –
Cc1ccc(-c2nc(NC(=O)c3ccn(C)c(=O)c3)sc2-c2ccc(C)cc2)cc1 | 5.86 µM | – | IC50 (HEPG2TOX_HILL_SLOPE 6.56, HEPG2TOX_R_SQUARED 0.678, PBLUC_HILL_SLOPE 73.6, 3.22, PBLUC_R_SQUARED 0.772, 0.348, read-out: LUCIFERASE INFECTION ASSAY - IC50): 3.76 µM
COc1cc(/C=C/C(=O)Oc2c(Cl)cc(Cl)c3ccc(C)nc23)cc(OC)c1OC | 3.54 µM | – | IC50 (HEPG2TOX_HILL_SLOPE 1.48, HEPG2TOX_R_SQUARED 0.88, PBLUC_HILL_SLOPE 12.1, PBLUC_R_SQUARED 0.667, read-out: LUCIFERASE INFECTION ASSAY - IC50): 2.95 µM
O=C1N/C(=N\C2CCCC2)S/C1=C\c1ccc2c(c1)OCCO2 | 7.77 µM | – | IC50 (HEPG2TOX_HILL_SLOPE 6.25, HEPG2TOX_R_SQUARED 0.845, PBLUC_HILL_SLOPE 2.64, PBLUC_R_SQUARED 0.759, read-out: LUCIFERASE INFECTION ASSAY - IC50): 3.38 µM
CCOC(=O)C1CCCN(CC(=O)N2N=C3/C(=C/c4ccc(Cl)cc4)CCCC3C2c2ccc(Cl)cc2)C1 (stereo not given) | > 10 µM | – | IC50 (PBLUC_HILL_SLOPE 9.1, PBLUC_R_SQUARED 0.32, read-out: LUCIFERASE INFECTION ASSAY - IC50): 7.93 µM
CCOC(=O)CN1N=C(/C=C/c2ccc(C(C)C)cc2)CCC1=O | > 10 µM | – | IC50 (HEPG2TOX_HILL_SLOPE 1.7, HEPG2TOX_R_SQUARED 0.981, read-out: LUCIFERASE INFECTION ASSAY - IC50): > 10 µM
COc1ccc(C2CC(=O)c3c(n[nH]c3C)C2)cc1 (stereo not given) | > 12.9 µM | – | IC50 (PBLUC_HILL_SLOPE 1.11, PBLUC_R_SQUARED 0.36, read-out: LUCIFERASE INFECTION ASSAY - IC50): 4.45 µM
C=C(C)c1ccccc(=O)c1O | > 20.3 µM | > 20.3 µM | –
Cc1nn(Cc2ccccc2)c(Cl)c1/C=C/C(=O)OC(C)C(=O)N1CCCC1 (stereo not given) | 4.19 µM | – | IC50 (PBLUC_HILL_SLOPE 3.98, PBLUC_R_SQUARED 0.412, read-out: LUCIFERASE INFECTION ASSAY - IC50): 2.41 µM
N#C/C=C1\SCC(=O)N1CC(=O)c1ccc([N+](=O)[O-])cc1 | > 10 µM | – | IC50 (PBLUC_HILL_SLOPE 1.79, PBLUC_R_SQUARED 0.472, read-out: LUCIFERASE INFECTION ASSAY - IC50): 5.27 µM
CCOc1cc2c(cc1OCC)CN(c1cnn(-c3nc4ccccc4[nH]3)c(=O)c1Cl)CC2 | 2.69 µM | – | IC50 (HEPG2TOX_HILL_SLOPE 1.71, HEPG2TOX_R_SQUARED 0.884, PBLUC_HILL_SLOPE 7.85, 14.7, PBLUC_R_SQUARED 0.450, 0.666, read-out: LUCIFERASE INFECTION ASSAY - IC50): 2.1 µM
CCc1ccc(C2NC(=O)NC(C)=C2C(=O)c2ccccc2)cc1 (stereo not given) | > 10 µM | > 10 µM | –
CNc1nc(NCc2cccc(OC)c2)c2sc(-c3ccccc3)cc2n1 | > 8.77 µM | > 8.77 µM | –
COc1cc(OC)c(C(=O)/C=C/c2cnc(N3CCCC3)nc2)cc1Cl | > 10 µM | 7.4 µM | –
COc1cc(-c2cn3c(-c4cccc(C(C)=O)c4)cnc3cn2)ccc1O | > 9.18 µM | – | IC50 (HEPG2TOX_HILL_SLOPE 8.28, HEPG2TOX_R_SQUARED 0.589, PBLUC_HILL_SLOPE 10.1, PBLUC_R_SQUARED 0.274, read-out: LUCIFERASE INFECTION ASSAY - IC50): 7.75 µM
O=C1c2cccc3c([N+](=O)[O-])ccc(c23)C(=O)N1Cc1cccnc1 | > 9.9 µM | > 9.9 µM | –
O=C(Nc1ccc(OC(F)(F)F)cc1)Nc1cc(-c2ccco2)n[nH]1 | > 9.37 µM | – | IC50 (PBLUC_HILL_SLOPE 2.58, PBLUC_R_SQUARED 0.157, read-out: LUCIFERASE INFECTION ASSAY - IC50): 7.52 µM
NC(Cc1ccc(F)cc1)c1csc(Nc2ccc(-c3ccccc3)nn2)n1 (stereo not given) | > 8.43 µM | – | IC50 (PBLUC_HILL_SLOPE 14.8, PBLUC_R_SQUARED 0.059, read-out: LUCIFERASE INFECTION ASSAY - IC50): 8.32 µM
O=S(=O)(Nc1cc(Cl)c(Cl)cc1Cl)c1cc(C(F)(F)F)cc(C(F)(F)F)c1 | 1.98 µM | – | IC50 (HEPG2TOX_HILL_SLOPE 2.48, HEPG2TOX_R_SQUARED 0.974, PBLUC_HILL_SLOPE 1.87, PBLUC_R_SQUARED 0.724, read-out: LUCIFERASE INFECTION ASSAY - IC50): 0.611 µM
C[C@H](NC(N)=O)C(=O)OCC(=O)Nc1cccc(C#N)c1 | > 10 µM | > 10 µM | –
Cc1cc2ncc(-c3ccnc(SCC(=O)c4ccc(Cl)cc4)n3)c(C)n2n1 | > 8.05 µM | > 8.05 µM | –
